# Experimental data from US6380254B2, “Method and composition for treating and preventing pathogenic effects caused by intracellular calcium overload” (Leigh Biotechnology, Inc., priority 1994, dated 2002).
# Read-outs that look alike come from different tables or passages of the source.
# Columns and labels:
# Assay type in all cases: cell-based, rat
# Hepatocytes [1] = assay: Viability of post-anaerobic hepatocytes (fraction of cytosolic lactate dehydrogenase retained intracellularly); details: glycine 20 mM, mixture less than 5 mM total, 90 min anaerobic then 90 minute aerobic incubation
# Hepatocytes [2] = assay: as above; details: for viability at 5000 µM: Rattus norvegicus, Hepatocyte, 1.5 h, read-out: SURVIVING FRACTION; for MEAN SURVIVING FRACTION: glycine 20 mM, mixture less than 5 mM total, 90 min anaerobic then 90 minute aerobic incubation, untreated .384
# Protocol: Both perfusates were introduced in situ at a rate of 20 ml/minute. The liver was dispersed by several passages through a glass pipette tip (4 mm aperture), subsequently filtered through two layers of a 250 micron Nylon mesh, and diluted in 50 ml of a chilled suspension medium of the BSS containing 1.3 mM CaCl2, 1.3 mM MgCl2, 20 mM glucose, and 5 mM pyruvate. The crude suspension was purified by differential centrifugation (100 g per 2 minutes).
# The purified cell suspension, consisting primarily of liver parenchymal cells, was washed three times with the cold suspension medium. The final pellet was resuspended at a concentration of 20 mg cell protein (Biuret assay) per milliliter of suspension medium and incubated aerobically for one hour at 24° C. in a 50 ml polypropylene centrifuge tube mounted horizontally on the rocker tray of a shaking water bath (30 strokes per minute). At the end of this incubation period, hepatocyte viability was assessed by trypan blue exclusion.
# Samples of the purified cell suspension were then transferred to two 50 ml polypropylene test tubes. One of these tubes was purged of oxygen by flushing the gas phase with argon and then permitting the cells to consume the residual oxygen in the medium. […] This anaerobic suspension was maintained in a 37° C.. water bath without agitation.
# The other test tube was supplemented with oxygen by flushing the gas phase with pure oxygen. Diffusion of oxygen from the gas phase to this aerobic reference cell suspension was encouraged by orienting the tube in such a fashion as to maximize surface area and by gently agitating the suspension in the 37° C.. water bath. After 90 minutes, both suspension were removed from the water bath and the cells were washed two times with an ice cold suspension buffer and then resuspended in a warm, aerated suspension medium to a concentration of 10 mg cell protein.
# A one milliliter sample of the anaerobic suspension was added to 4 ml of warm, aerated suspension medium containing either no additives (for the untreated cells), or a single amino carboxylic acid at a concentration of 5 mM. Cell viability was assessed in each test population at the end of a subsequent 90 minute aerobic incubation at 37° C. by measuring the fraction of cytosolic lactate dehydrogenase activity retained intracellularly.
# Cell viability was assessed as the fraction of the cytosolic enzyme, lactate dehydrogenase, retained intracellularly following a 90 minute aerobic incubation. A minimum of four observations were made and recorded.
# (§1) Hepatocytes were incubated anaerobically for 90 minutes, then washed and resuspended in fresh medium containing either no additives (untreated cells), trifluoperazine (25 μM), glycine (20 mM or 150 mg per 100 ml), or a mixture of amino carboxylic acids (total amino carboxylic acid concentration was less than 5 mM or 65 mg per 100 ml). Cell viability was assessed as the fraction of lactate dehydrogenase retained intracellularly following a 90 minute aerobic incubation. A minimum of four observations were made and recorded.
# as §1, with “additives (for the untreated” for “additives (untreated”, “cells), neomycin sulfate (10 mM),” for “cells), trifluoperazine (25 μM),”, “or the” for “or a”
# glycogen phosphorylase a = assay: Intracellular calcium activity in post-anaerobic hepatocytes, expressed as glycogen phosphorylase a activity; details: mmols of PO^−3 liberated from glucose-1-phosphate per 1 million viable post-anaerobic cells; chlorpromazine 25 μM, glycine 20 mM, mixture less than 5 mM total; untreated 165.5
# Protocol: Kinase is stimulated by increased intracellular calcium concentration via calmodulin. […] Thera., Vol. 238, pp. 186-191, 1986. […] Cell viability was assessed as the fraction of lactate dehydrogenase retained intracellularly following a 90 minute aerobic incubation. Intracellular calcium activity was assessed in these post-anaerobic cells by the method described in Long and Moore, supra, and expressed in terms of glycogen phosphorylase a activity. […] A minimum of four observations were made and recorded.
# [3] = Table 2, chlorpromazine 25 μM, mean with standard deviation, untreated .342
# [4] = single amino carboxylic acid at 5 mM, 90 min anaerobic, then 90 minute aerobic incubation at 37° C., untreated 0.25
# [5] = Table 6, desferrioxamine 25 μM, untreated .363
# [6] = Table 4, neomycin sulfate 10 mM
# [7] = Table 5, alpha tocopherol succinate 100 mg per 100 ml, untreated .352
molecule,measurement,setting,value
"CN(C)CCCN1c2ccccc2Sc2ccc(Cl)cc21 [Chlorpromazine, chlorpromazine, reference compound]",MEAN SURVIVING FRACTION,Hepatocytes [1]; [3],.567 ± .055
"N=C(N)NCCC[C@H](N)C(=O)O [Arginine, arginine]",viability at 5000 µM,Hepatocytes [2],51%
"N[C@@H](Cc1ccc(O)cc1)C(=O)O [Tyrosine, tyrosine, reference compound]",viability at 5000 µM,Hepatocytes [2]; [4],31%
"N[C@@H](Cc1c[nH]cn1)C(=O)O [Histidine, histidine]",viability at 5000 µM,Hepatocytes [2]; [4],50%
"N[C@@H](CO)C(=O)O [Serine, serine]",viability at 5000 µM,Hepatocytes [2]; [4],40%
"C[C@H](N)C(=O)O [Alanine, alanine]",viability at 5000 µM,Hepatocytes [2]; [4],51%
"N[C@@H](CCC(=O)O)C(=O)O [Glutamic acid, glutamic acid]",viability at 5000 µM,Hepatocytes [2],52%
"NC(=O)C[C@H](N)C(=O)O [Asparagine, asparagine]",viability at 5000 µM,Hepatocytes [2]; [4],54%
"CC(=O)N(O)CCCCCNC(=O)CCC(=O)N(O)CCCCCNC(=O)CCC(=O)N(O)CCCCCN [Desferrioxamine, desferrioxamine, reference compound]",MEAN SURVIVING FRACTION,Hepatocytes [1]; [5],.393 ± .029
"NC(=O)CC[C@H](N)C(=O)O [Glutamine, glutamine]",viability at 5000 µM,Hepatocytes [2]; [4],52%
neomycin sulfate [reference compound],MEAN SURVIVING FRACTION,Hepatocytes [2]; [6],.566 ± .043
"NCC(=O)O [Glycine, glycine]",viability at 5000 µM,Hepatocytes [2]; [4],53%
same,MEAN SURVIVING FRACTION,"Hepatocytes [2]; Table 3, trifluoperazine 25 μM",.739 ± .014
same,MEAN SURVIVING FRACTION,Hepatocytes [2]; [6],.694 ± .033
same,GLYCOGEN PHOSPHORYLASE A ACTIVITY,glycogen phosphorylase a,124.8 ± 22.9 mmols
same,MEAN SURVIVING FRACTION,Hepatocytes [1]; [3],.698 ± .065
same,MEAN SURVIVING FRACTION,Hepatocytes [1]; [7],.749 ± .020
same,MEAN SURVIVING FRACTION,Hepatocytes [1]; [5],.696 ± .038
"CC[C@H](C)[C@H](N)C(=O)O [Isoleucine, isoleucine, reference compound]",viability at 5000 µM,Hepatocytes [2]; [4],29%
"CN1CCN(CCCN2c3ccccc3Sc3ccc(C(F)(F)F)cc32)CC1 [Trifluoperazine, trifluoperazine, reference compound]",MEAN SURVIVING FRACTION,"Hepatocytes [2]; Table 3, trifluoperazine 25 μM",.550 ± .061
"Cc1c(C)c2c(c(C)c1O)CC[C@@](C)(CCC[C@H](C)CCC[C@H](C)CCCC(C)C)O2 [alpha-tocopherol, reference compound]",MEAN SURVIVING FRACTION,Hepatocytes [1]; [7],.421 ± .087
"CC(C)C[C@H](N)C(=O)O [Leucine, leucine, reference compound]",viability at 5000 µM,Hepatocytes [2]; [4],32%
"O=C(O)[C@@H]1CCCN1 [Proline, proline]",viability at 5000 µM,Hepatocytes [2]; [4],49%
"CC(C)[C@H](N)C(=O)O [Valine, valine, reference compound]",viability at 5000 µM,Hepatocytes [2]; [4],28%
